Results published in US8106055B2, “Substituted amide compounds” (Gruenenthal GmbH, priority 2007, dated 2012).

What was measured:
[1] = target: T1, bradykinin 1 receptor (B1R) of the rat (Rattus norvegicus, UniProt P97583); assay: Functional investigation on the rat bradykinin 1 receptor (B1R), Ca2+ FLIPR assay in CHO K1 rB1R cells; format: cell-based; conditions: B1R antagonism rat; test substance 10 μM; Ca2+ FLIPR, CHO K1 rB1R cells
T1 construct: expressed in transfected cells; host or cells: CHO K1 cells
T1 sequence (P97583 1-337): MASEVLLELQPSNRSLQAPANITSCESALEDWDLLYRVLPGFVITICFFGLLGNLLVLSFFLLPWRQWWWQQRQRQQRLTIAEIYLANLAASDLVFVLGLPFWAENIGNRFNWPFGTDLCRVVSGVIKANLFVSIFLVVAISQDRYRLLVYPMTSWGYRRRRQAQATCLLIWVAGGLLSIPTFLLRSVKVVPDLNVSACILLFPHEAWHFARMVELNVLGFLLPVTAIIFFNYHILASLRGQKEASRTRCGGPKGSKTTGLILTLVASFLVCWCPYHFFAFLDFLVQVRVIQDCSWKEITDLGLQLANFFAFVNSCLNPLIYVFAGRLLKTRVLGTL
In short: (§1)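 Cells were dye-loaded with Fluo-4 plus probenecid, then test substances added and Ca2+ influx compared with agonist control for % activation. After 10-20 min, EC80 agonist (Lys-Des-Arg9-bradykinin human; Des-Arg9-bradykinin rat) was applied; suppression gave % inhibition and IC50 values.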

[2] = target: T2, human bradykinin 1 receptor (B1R) (Homo sapiens, UniProt P46663); assay: Functional investigation on the human bradykinin 1 receptor (B1R), Ca2+ FLIPR assay in CHO K1 hB1R cells; format: cell-based; conditions: B1R antagonism human; test substance 10 μM; Ca2+ FLIPR, CHO K1 hB1R cells
T2 construct: expressed in transfected cells; host or cells: CHO K1 cells
T2 sequence (P46663 1-353): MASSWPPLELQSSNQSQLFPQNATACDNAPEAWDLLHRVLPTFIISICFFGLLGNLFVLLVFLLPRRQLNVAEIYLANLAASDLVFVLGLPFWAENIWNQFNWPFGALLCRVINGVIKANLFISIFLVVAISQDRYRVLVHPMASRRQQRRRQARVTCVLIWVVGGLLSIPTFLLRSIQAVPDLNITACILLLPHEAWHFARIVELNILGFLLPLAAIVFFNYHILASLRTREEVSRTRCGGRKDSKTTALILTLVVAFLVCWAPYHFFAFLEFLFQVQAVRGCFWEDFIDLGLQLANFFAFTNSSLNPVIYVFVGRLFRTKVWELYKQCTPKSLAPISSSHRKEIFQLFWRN
In short: as §1

| SMILES | B1R Ant. r [10 μM] % Inhibition [1] [%] | B1R Ant. h [10 μM] % Inhibition [2] [%] |
| --- | --- | --- |
| CN(C)C(c1cccc(F)c1)C1CCC(CCNC(=O)COC2CCCN(S(=O)(=O)c3ccccc3)C2)CC1 (centres unmarked) [Example 326] | −6 | −5 |
| CN(C)C(c1cccc(F)c1)C1CCC(CNC(=O)COCCN(C)S(=O)(=O)c2cccc(C(F)(F)F)c2)CC1 (centres unmarked) [Example 302] | 0 | 38 |
| COc1ccc(S(=O)(=O)N(C)CCOCC(=O)NCCC2CCC(C(c3ccc(Cl)cc3)N(C)C)CC2)cc1OC (centres unmarked) [Example 339] | 31 | −9 |
| CN(C)C(c1ccc(F)cc1)C1CCC(NC(=O)COCCN(C)S(=O)(=O)c2ccc(F)cc2)CC1 (centres unmarked) [Example 357] | 27 | 7 |
| CN(C)C(c1cccc(F)c1)C1CCC(CNC(=O)COC2CCCN(S(=O)(=O)c3ccccc3)C2)CC1 (centres unmarked) [Example 309] | −2 | −4 |
| COc1ccc(S(=O)(=O)N2CCCCC2COCC(=O)NCC2CCC(C(c3ccc(Cl)cc3)N(C)C)CC2)c(OC)c1 (centres unmarked) [Example 280] | 36 | 51 |
| CN(C)C(c1ccc(F)cc1)C1CCC(CNC(=O)COC2CCCCC2N(C)S(=O)(=O)c2ccc(Cl)c(Cl)c2)CC1 (centres unmarked) [Example 359] | −4 | 42 |
| CN(C)C(c1cccc(F)c1)C1CCC(CNC(=O)COCCN(Cc2ccccc2)S(=O)(=O)c2ccccc2)CC1 (centres unmarked) [Example 296] | 24 | −1 |
| CN(C)C(c1cccc(F)c1)C1CCC(CCNC(=O)COCCN2CCN(S(=O)(=O)c3ccccc3)CC2)CC1 (centres unmarked) [Example 325] | 6 | 45 |
| CN(C)C(c1ccc(F)cc1)C1CCC(CCNC(=O)COCCN(C)S(=O)(=O)c2c(Cl)cccc2Cl)CC1 (centres unmarked) [Example 285] | 75 | 97 |
| CN(C)C(c1ccc(F)cc1)C1CCC(NC(=O)COCC2CCCN2S(=O)(=O)c2ccc(Cl)c(Cl)c2)CC1 (centres unmarked) [Example 344] | 12 | 65 |
| CN(C)C(c1ccc(Cl)cc1)C1CCC(CNC(=O)COCCN(C)S(=O)(=O)c2ccc(Cl)cc2)CC1 (centres unmarked) [Example 284] | 32 | 48 |
| CN(C)C(c1cccc(F)c1)C1CCC(NC(=O)COCCN(C)S(=O)(=O)c2cccc(C(F)(F)F)c2)CC1 (centres unmarked) [Example 297] | 16 | 15 |
| COc1ccc(S(=O)(=O)N2CCCC2COCC(=O)NCC2CCC(C(c3ccc(Cl)cc3)N(C)C)CC2)cc1 (centres unmarked) [Example 351] | 34 | 52 |
| CN(C)C(c1ccc(Cl)cc1)C1CCC(CNC(=O)COCCN(C)S(=O)(=O)c2c(Cl)cc(Cl)cc2Cl)CC1 (centres unmarked) [Example 318] | 3 | 104 |
| CN(C)C(c1ccc(Cl)cc1)C1CCC(CNC(=O)COCCN(Cc2ccccc2)S(=O)(=O)c2ccccc2)CC1 (centres unmarked) [Example 343] | −15 | 12 |
| COc1cc(C)c(S(=O)(=O)N2CCN(CCOCC(=O)NCCC3CCC(C(c4ccc(Cl)cc4)N(C)C)CC3)CC2)c(C)c1C (centres unmarked) [Example 320] | −8 | 73 |
| COc1ccc(S(=O)(=O)N(C)CCOCC(=O)NCC2CCC(C(c3cccc(F)c3)N(C)C)CC2)cc1 (centres unmarked) [Example 340] | 23 | 39 |
| COc1ccc(S(=O)(=O)N2Cc3ccccc3CC2COCC(=O)NCC2CCC(C(c3ccc(F)cc3)N(C)C)CC2)cc1 (centres unmarked) [Example 288] | 20 | 62 |

| SMILES | B1R Ant. r [10 μM] % Inhibition [1] [%] | B1R Ant. h [10 μM] % Inhibition [2] [%] |
| --- | --- | --- |
| CN(C)C(c1cccc(F)c1)C1CCC(NC(=O)COC2CCN(S(=O)(=O)c3ccc(Cl)cc3Cl)C2)CC1 (centres unmarked) [Example 283] | 24 | 50 |
| CCN(CCOCC(=O)NCC1CCC(C(c2ccc(F)cc2)N(C)C)CC1)S(=O)(=O)c1c(C)cc(OC)c(C)c1C (centres unmarked) [Example 327] | 68 | 101 |
| COc1cc(C)c(S(=O)(=O)N(CCOCC(=O)NCCC2CCC(C(c3cccc(F)c3)N(C)C)CC2)Cc2ccccc2)c(C)c1 (centres unmarked) [Example 358] | 27 | 66 |
| COc1cc(C)c(S(=O)(=O)N2CCC(CCOCC(=O)NCC3CCC(C(c4cccc(F)c4)N(C)C)CC3)CC2)c(C)c1C (centres unmarked) [Example 319] | 11 | 0 |
| CN(C)C(c1ccc(Cl)cc1)C1CCC(CNC(=O)COCC2CCCN(S(=O)(=O)c3ccccc3)C2)CC1 (centres unmarked) [Example 294] | 32 | −3 |
| COc1ccc(S(=O)(=O)N2CCCCC2COCC(=O)NCCC2CCC(C(c3ccc(F)cc3)N(C)C)CC2)cc1 (centres unmarked) [Example 349] | 77 | 68 |
| CN(C)C(c1cccc(F)c1)C1CCC(CCNC(=O)COCC2CCCN(S(=O)(=O)c3ccccc3)C2)CC1 (centres unmarked) [Example 295] | 44 | 7 |
| CN(C)C(c1ccc(Cl)cc1)C1CCC(CNC(=O)COC2CCN(S(=O)(=O)c3ccccc3)C2)CC1 (centres unmarked) [Example 299] | −13 | −15 |
| COc1ccc(S(=O)(=O)N2CCCC2COCC(=O)NCCC2CCC(C(c3ccc(Cl)cc3)N(C)C)CC2)cc1 (centres unmarked) [Example 346] | 45 | 52 |
| COc1ccc(S(=O)(=O)N2CCCC2COCC(=O)NCC2CCC(C(c3cccc(F)c3)N(C)C)CC2)cc1 (centres unmarked) [Example 313] | 31 | 34 |
| CN(C)C(c1ccc(Cl)cc1)C1CCC(CCNC(=O)COCCN(C)S(=O)(=O)c2ccc(Cl)cc2)CC1 (centres unmarked) [Example 347] | 56 | 85 |
| CN(C)C(c1ccc(F)cc1)C1CCC(CCNC(=O)COCC2CCCCN2S(=O)(=O)c2ccc(Cl)c(Cl)c2)CC1 (centres unmarked) [Example 337] | −23 | 51 |
| CN(C)C(c1cccc(F)c1)C1CCC(NC(=O)COC2CCN(S(=O)(=O)c3ccccc3)CC2)CC1 (centres unmarked) [Example 335] | 2 | −8 |
| COc1ccc(S(=O)(=O)N(C)CCOCC(=O)NCCC2CCC(C(c3cccc(F)c3)N(C)C)CC2)cc1OC (centres unmarked) [Example 293] | 2 | −7 |
| COc1cc(C)c(S(=O)(=O)N(C)CCOCC(=O)NCCC2CCC(C(c3ccc(F)cc3)N(C)C)CC2)c(C)c1C (centres unmarked) [Example 354] | 44 | 104 |
| COc1ccc(S(=O)(=O)N2CCC(OCC(=O)NCCC3CCC(C(c4ccc(Cl)cc4)N(C)C)CC3)C2)cc1OC (centres unmarked) [Example 338] | 27 | −3 |
| CN(C)C(c1ccc(F)cc1)C1CCC(CNC(=O)COCCN(Cc2ccccc2)S(=O)(=O)c2ccccc2)CC1 (centres unmarked) [Example 342] | −20 | 28 |
| CN(C)C(c1ccc(Cl)cc1)C1CCC(CCNC(=O)COCCN(C)S(=O)(=O)c2cccc(C(F)(F)F)c2)CC1 (centres unmarked) [Example 289] | 13 | 51 |
